The subject of one data set is c-Myc quadruplex DNA. Briefly: Fluorescence titration with c-Myc quadruplex. The class given is binding. As to conditions: fluorescence intensity of bound ligand divided by that of free ligand. An excerpt:
(§1) Atoms absorb energy and can emit it as heat (vibrational relaxation), fast light emission (fluorescence), or slow light emission (phosphorescence). Most of the cyanines described herein fluoresce in response to near-infrared wavelengths of light absorption. As the cyanines bind to DNA, π-π stacking and hydrogen bonding is altered leading to a change in fluorescence emission. This change can be measured in direct correlation to DNA binding. In some cases an approximate binding constant can be determined from measuring fluorescence enhancement as DNA is titrated into a solution of fluorescent compound. Fluorescent enhancement, or the maximum emission divided by the minimum emission of the titration (compound saturated with DNA divided by free compound) at a fixed wavelength is useful to compare DNA affinity between a family of compounds.
(§2) A UV-Vis absorbance scan is first conducted to acquire the excitation wavelength. A 5 μM solution of compound in 1 mL, of Tris/K+ buffer is scanned from 800 nm to 200 nm at a rate of 60 nm/min with a 5 nm slit width. All DNAs are diluted in Tris/K+ buffer. The human telomere and c-Myc DNA are annealed into a quadruplex motif by heating at 95° C. in the presence of potassium ions in a hot water bath for approximately five minutes, then allowing the solution to slowly come to room temperature. In a fluorescence cell, an emission scan of 1 μM of compound in 1 mL of Tris Buffer is taken (Varian Cary Eclipse, Walnut Creek, Calif.) with appropriate parameters based on the excitation wavelength, an excitation slit width of 5 nm, and an emission slit width of 5 nm. Then 0.05 μM of DNA is titrated into the solution and scanned under the same conditions after each addition. The solution is titrated to saturation, at which the change in fluorescence intensity is nearly zero.
(§3) Due to the highly stabilized parallel quadruplex structure of c-Myc, thermal melting could not be considered for this sequence. Thus, fluorescence can be used to measure binding affinity towards the two quadruplex structures. […] Fluorescence enhancement, or the fluorescence intensity of the bound ligand divided by that of the free ligand, was considered in evaluating binding.

Data set [1] deals with Human Telomere (HT) quadruplex DNA. Briefly: Fluorescence titration with human telomere quadruplex. The class given is binding. As to conditions: fluorescence intensity of bound ligand divided by that of free ligand.
Text: as §1, §2, §3

A further data set concerns hTelo. Nature of the data set: Isothermal calorimetry, hTelo. The class given is binding, human. To be noted: 25° C. How it is done: (§4) DNA binding is dependent on enthalpy and entropy, components of the Gibbs free energy. Isothermal calorimetry measures the heat absorbed (endothermic binding) or released (exothermic binding) in binding at the μcalorie level. By examining the thermodynamics of different compounds, compounds can be analyzed to determine what factors favor quadruplex over duplex DNA binding. Enthalpy and binding constants are determined from measuring the heat change when compound is injected into a DNA solution, and the equations ΔG=ΔH−TΔS ΔG=−RT ln K are used to calculate entropy and Gibbs free energy.
(§5) Solutions of compound (0.2 mM) were injected 30 times into solutions of DNA (0.02 mM) on a VPC-ITC. All solutions were degasses at 25° C. for 15 minutes. TRIS/K^+ buffer was used in the reference cell. The injections were monitored at 25° C. with a reference power of 1 μcal/sec, an initial delay of 300 sec, and a stirring speed of 290. The first injection was 2 μL for 4 sec, with a spacing of 300 sec, and a filter period of 1 sec. The remaining 29 injections were 10 μL volume for a duration of 20 sec, with a spacing of 300 sec, and a filter period of 1 sec. The data was analyzed by VPViewer 2000 software.
(§6) Isothermal calorimetry (ITC) experiments were performed to test the SPR and fluorescence preference in binding c-myc over hTelo. […]
A general note: Isothermal titration calorimetry measures the heat released or taken up as one component is titrated into another.

The subject of another data set is HDF cells. Briefly: Trypan blue exclusion assay for cell viability, HDF. As to conditions: at both concentrations; text also says lower concentrations (5-10 μM). The class given is cell-based. How it is done:
(§7) To evaluate the cytotoxic properties of the cyanines described herein, trypan blue exclusion assay for cell viability was performed on 10 compounds at two different concentrations (5 μM and 20 μM). To test the cancer selectivity of the dyes, the results were compared in a cancer cell line, HeLa and a non-cancerous cell line, HDF. The loss of membrane integrity in dead and dying cells allows preferential uptake of labels like trypan blue. At the end of the incubation times with the dyes, HeLa or HDF cells were pelleted and washed with PBS. Well-suspended cells were mixed with equal volume of 0.4% trypan blue in 1×PBS, pH 7.4, followed by incubation at room temperature for 5 min. Cells were examined under the microscope and blue-stained cells were considered non-viable.

Data set [2] relates to Human Telomere (HT) quadruplex DNA. Nature of the data set: Thermal melting UV-Vis absorbance, quadruplex DNA. The class given is binding. To be noted: for Selectivity for quadruplex over duplex DNA by thermal melting: quadruplex vs duplex; for Change in Thermal Melting Points, Human Telomere (HT), 1:1: ratio 1:1 (R); for Change in Thermal Melting Points, Human Telomere (HT), 2:1: ratio 2:1 (R); for Change in Thermal Melting Points, Human Telomere (HT), 4:1: ratio 4:1 (R); for Change in Thermal Melting Points, Human Telomere (HT), 6:1: ratio 6:1 (R). How it is done: (§8) Three DNA sequences were used: Human Telomere (HTelo), c-myc, and Duplex (Integrated DNA Technologies, San Diego, Calif.). The sequences are shown below:
The concentration of each DNA sample mixed with MilliQ water was determined by UV-Vis at 260 nm using their extinction coefficients. Quadruplexes from Human Telomere (Tel22) and c-myc were prepared by heating the corresponding oligonucleotides at 90° C. for 5 minutes in a 10 mM Tris/50 mM KCl buffer at pH 7.5 and then cooling to room temperature (to favor the intramolecular folding).
(§9) The buffer used was 10 mM Tris base (Fischer Scientific, Fairlawn, N.J.), 50 mM Potassium Chloride (Fischer Scientific, Fairlawn, N.J.), with the pH adjusted to 7.5 with Hydrochloric Acid (Fischer Scientific, Fairlawn, N.J.).
(§10) DNA folding and unfolding (melting) can be measured using absorbance at a constant wavelength of 260 nm for duplex DNA and 295 nm for quadruplex DNA while the temperature is increased, for example from 25° C. to 95° C. At these wavelengths, the resulting curves decrease in absorbance for quadruplex and increase for duplex DNA. Buffer solution and presence of DNA-binding compounds alter the Tm melting temperature, or midpoint between fully folded and unfolded. An increase in melting temperature in the presence of DNA-binding compounds indicates a stabilizing effect of the compound on the DNA structure.
(§11) The selectivity of a given cyanine for quadruplex DNA can be evaluated using thermal melting. The number in parentheses next to the compound number corresponds to the compound number in Schemes 1 and 2.
(§12) Thermal melting studies were also performed on compounds T4 and T5 (Scheme 2) and ZK-14 and SP-2-36.

In another data set the test system is Duplex DNA. Briefly: Thermal melting UV-Vis absorbance, duplex DNA. The class given is binding. As to conditions: for Change in Thermal Melting Points, Duplex, 1:1: ratio 1:1 (R); for Change in Thermal Melting Points, Duplex, 2:1: ratio 2:1 (R); for Change in Thermal Melting Points, Duplex, 4:1: ratio 4:1 (R); for Change in Thermal Melting Points, Duplex, 6:1: ratio 6:1 (R). How it is done:
as §8, §9, §10, §11, §12

The subject of the next data set is A2T2. Briefly: Isothermal calorimetry, A2T2. As to conditions: 25° C. The class given is binding. How it is done:
as §4, §5, §6

The subject of the next data set is c-myc. Briefly: Isothermal calorimetry, c-myc. The class given is binding. As to conditions: ITC, 25° C. How it is done:
as §4, §5, §6

Another data set relates to HeLa cells. Nature of the data set: Trypan blue exclusion assay for cell viability, HeLa. The class given is cell-based. As to conditions: for Hela cells killed: after 24 h. How it is done: as §7
A short description of data set [3]: Trypan blue exclusion assay for cell viability, HDF. The class given is cell-based. To be noted: human, HDF cells (non-cancerous cell line); at the lower dose (5 μM); read-out: cell viability of normal cells (HDF). How it is done:
as §7

The structures appear in SMILES notation.

`CC1(C)C(/C=C/C(Br)=C/C=C2\N(CCC[N+](C)(C)C)c3ccccc3C2(C)C)=[N+](CCC[N+](C)(C)C)c2ccccc21` [A-C8 (43)]: the “Fluorescence Enhancement, c-Myc” value in the data set on c-Myc quadruplex DNA came out at 3.46. Moreover, in [1], the “Fluorescence Enhancement, HT” value was 1.66. For the same molecule, the “K (M^−1), hTelo” value in the data set on hTelo (ITC) worked out at 55700 M⁻¹. Moreover, the “cell death, HDFs” value in the data set with HDF cells is listed as roughly 35%. Further, in [2], the “Selectivity for quadruplex over duplex DNA by thermal melting” value is recorded as “selectively bind to quadruplex DNA with little or no binding to duplex DNA”; the “Change in Thermal Melting Points, Human Telomere (HT), 1:1” value (shortened to “Change … (HT), 1:1”) turned out to be 2.0; the “Change in Thermal Melting Points, Human Telomere (HT), 2:1” value (“Change … (HT), 2:1” below) came out at 4.6; the “Change in Thermal Melting Points, Human Telomere (HT), 4:1” value (from here on “Change … (HT), 4:1”) stood at 11.6. Moreover, the “Change in Thermal Melting Points, Human Telomere (HT), 6:1” value (shortened to “Change … (HT), 6:1”) in data set [2] came to 15.6. Further, in the data set with Duplex DNA, the “Change in Thermal Melting Points, Duplex, 1:1” value worked out at 0.0; the “Change in Thermal Melting Points, Duplex, 2:1” value is −1.1; the “Change in Thermal Melting Points, Duplex, 4:1” value is given as 0.9; the “Change in Thermal Melting Points, Duplex, 6:1” value was −0.2. In addition, the “ITC binding to A2T2” value in the data set with A2T2 was “No binding”. Further, in the data set on c-myc, the “K (M^−1), c-myc” value was 802000 M⁻¹.
Regarding `CC1(C)C(/C=C/C=C2/N(CCC[N+](C)(C)C)c3ccc(Br)cc3C2(C)C)=[N+](CCC[N+](C)(C)C)c2ccc(Br)cc21` [MH5 (28)], in the data set on HeLa cells (HeLa, both concentrations studied (5 μM and 20 μM)), the “Cytotoxicity to cancer cells” value is “highly cytotoxic to cancer cells”. Besides, in the data set on c-Myc quadruplex DNA, the “Fluorescence Enhancement, c-Myc” value is recorded as 4.65. Besides, the “Fluorescence Enhancement, HT” value in [1] worked out at 1.6. Also, the “ITC binding to hTelo” value in the data set on hTelo is recorded as “Weak binding- unable to fit”. Also, in [2], the “Selectivity for quadruplex over duplex DNA by thermal melting” value is listed as “selectively bind to quadruplex DNA with little or no binding to duplex DNA”; the “Change … (HT), 1:1” value is 1; the “Change … (HT), 2:1” value is listed as 5.2; the “Change … (HT), 4:1” value is 14.2. Moreover, the “Change … (HT), 6:1” value in [2] was determined as 23.7. For the same molecule, in the data set on Duplex DNA, the “Change in Thermal Melting Points, Duplex, 1:1” value is −0.1; the “Change in Thermal Melting Points, Duplex, 2:1” value is recorded as −1.0; the “Change in Thermal Melting Points, Duplex, 4:1” value is recorded as −1.0; the “Change in Thermal Melting Points, Duplex, 6:1” value is −0.1. Further, the “ITC binding to A2T2” value in the data set on A2T2 is given as “No binding”. Further, in the data set on c-myc, the “K (M^−1), c-myc” value turned out to be 1.19e+06 M⁻¹.
Turning to `CC1(C)C(/C=C/C(Br)=C/C=C2/N(CCC[N+](C)(C)C)c3ccc(I)cc3C2(C)C)=[N+](CCC[N+](C)(C)C)c2ccc(I)cc21` [A-161 (50)], in the data set with HeLa cells (5 μM), the Hela cells killed is listed as greater than 70%. Besides, in the data set on HeLa cells (20 μM), the Hela cells killed was greater than 70%. In data set [3], the viability (usually a per cent measure of how many cells are alive, often set against a control) at 5 µM is 100%. Besides, in [2], the “Change … (HT), 1:1” value turned out to be 4.1; the “Change … (HT), 2:1” value was found to be 9.2; the “Change … (HT), 4:1” value stood at 16.2; the “Change … (HT), 6:1” value is 21.7.

The values above are taken from patent US11572475B2, “Carbocyanines for G-quadruplex DNA stabilization and telomerase inhibition” (GEORGIA STATE UNIVERSITY RESEARCH FOUNDATION, INC., priority 2011, dated 2023).
